Test results from patent publication US20160051706A1, “PROCESS FOR PRODUCING A COMPLEX OF A LANTHANIDE WITH A MACROCYCLIC LIGAND” (AGFA HEALTHCARE, priority 2013, published 2016).
Where “and” joins values, the source holds several entries; their conditions need not be identical. Equal entries are not always repeated.

Columns and labels:
[1] = Moisture content of DOTA (Karl Fischer) over time at controlled relative humidity; type: physicochemical; details: Temp. 20 ± 2° C.
Protocol: The measurement of the moisture content in DOTA is performed as described in the semi-micro method of Karl Fischer (Fischer, Karl-Pharm. Eur. Section 2.5.12). This section and the next section illustrates how the moisture content in a batch of a macrocyclic ligand changed when the product was exposed to different conditions of relative humidity. The moisture content in the samples was measured using methods known to those skilled in the art. In this example, the measurement of the content of moisture in DOTA was performed as described above. Two samples of DOTA were kept in conditions of relative humidity (RH)=30+5% at a temperature of Temp=20+2° C. From these samples, small samples were taken at different times (T0=beginning of the experiment; T30=T0+30 min; T90=T0+90 min; and […]=T0+300 min) and the moisture content was measured as described above. Each experiment (Exp.) was performed twice and the average of each (Ind.) was determined (Avg.). This measurement, as the previous one, illustrated how the moisture content in a batch of a macrocyclic ligand was affected by the environmental relative humidity conditions. Therefore, the previous experiments were repeated in the same conditions but at a RH=75+5%. Again, each experiment (Exp.) was performed twice and the average of each (Ind.) was determined (Avg.).

[2] = LD50 better than for free DOTA; cited from earlier work

**Q.** What does the source list for `O=C(O)CN1CCN(CC(=O)O)CCN(CC(=O)O)CCN(CC(=O)O)CC1` [DOTA, 1,4,7,10-tetraazacyclododecane-1,4,7,10-tetraacetic acid]?
**A.** Moisture content DOTA, Avg. ([1]; T0, RH 30 ± 5%): 4.929 wt. % and 5.25 wt. %; Moisture content DOTA, Ind. ([1]; T0, RH 30 ± 5%): 5.150 wt. % and 4.941 wt. % and 4.929 wt. % and 5.346 wt. %; Moisture content DOTA, Avg. ([1]; T0, RH 75 ± 5%): 4.94 wt. % and 5.25 wt. %; Moisture content DOTA, Ind. ([1]; T0, RH 75 ± 5%): 5.150 wt. % and 4.941 wt. % and 4.929 wt. % and 5.346 wt. %; Moisture content DOTA, Avg. ([1]; T30 (T0+30 min), RH 30 ± 5%): 4.98 wt. % and 6.20 wt. %; Moisture content DOTA, Ind. ([1]; T30 (T0+30 min), RH 30 ± 5%): 6.247 wt. % and 4.944 wt. % and 5.020 wt. % and 6.154 wt. %; Moisture content DOTA, Avg. ([1]; T30 (T0+30 min), RH 75 ± 5%): 6.71 wt. % and 6.65 wt. %; Moisture content DOTA, Ind. ([1]; T30 (T0+30 min), RH 75 ± 5%): 6.851 wt. % and 6.734 wt. % and 6.694 wt. % and 6.449 wt. %; Moisture content DOTA, Avg. ([1]; T90 (T0+90 min), RH 30 ± 5%): 5.00 wt. % and 6.12 wt. %; Moisture content DOTA, Ind. ([1]; T90 (T0+90 min), RH 30 ± 5%): 6.170 wt. % and 5.038 wt. % and 4.954 wt. % and 6.062 wt. %; Moisture content DOTA, Avg. ([1]; T90 (T0+90 min), RH 75 ± 5%): 7.34 wt. % and 6.88 wt. %; Moisture content DOTA, Ind. ([1]; T90 (T0+90 min), RH 75 ± 5%): 6.789 wt. % and 7.475 wt. % and 7.200 wt. % and 6.962 wt. %; Moisture content DOTA, Avg. ([1]; T300 (T0+300 min), RH 30 ± 5%): 5.15 wt. % and 6.19 wt. %; Moisture content DOTA, Ind. ([1]; T300 (T0+300 min), RH 30 ± 5%): 6.268 wt. % and 5.178 wt. % and 5.114 wt. % and 6.106 wt. %; Moisture content DOTA, Avg. ([1]; T300 (T0+300 min), RH 75 ± 5%): 5.86 wt. % and 4.36 wt. %; Moisture content DOTA, Ind. ([1]; T300 (T0+300 min), RH 75 ± 5%): 4.609 wt. % and 5.914 wt. % and 5.813 wt. % and 4.111 wt. %

**Q.** For `O=C([O-])CN1CCN(CC(=O)[O-])CCN(CC(=O)[O-])CCN(CC(=O)[O-])CC1.[Ca+2].[Na+].[Na+]` [Na2 [Ca-DOTA]], which “LD50 of Na2 [Ca-DOTA] relative to free DOTA” value [2] is on record?
**A.** at least 40 times
